Values of other authors in patent US9950967B2, “Titanium-containing formulation and method of preparation of titanium-containing formulation” (INTERMAG Sp. z.o.o., priority 2013, dated 2018).

System: plants
Settings: I. Pais, J. Plant Nutr. 6:3-133, 1983

titanium
increases the yield: 10-20%
